Data on 18 compounds can be found in ChEMBL document CHEMBL1909046, “DrugMatrix in vitro pharmacology data”.

The target in data set [1] is Platelet-activating factor receptor (Homo sapiens, UniProt P25105). The class given is tissue-based. Note: in other assays of this panel Not Active means under 50% inhibition at 10 µM.
A short description of data set [2]: DRUGMATRIX: GABAA, Flunitrazepam, Central radioligand binding (ligand: [3H] Flunitrazepam). The class given is cell membranes, Rattus norvegicus, Wistar, Brain, Membrane. The following applies: Not Active = under 50% inhibition at 10 µM.
The target of data set [3] is T1, 3-hydroxy-3-methylglutaryl-coenzyme A reductase (Homo sapiens, UniProt P04035).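 Note: enzyme inhibition assay of HMG-CoA reductase using radiolabeled [14C]HMG-CoA as substrate; in other assays of this panel Not Active means under 50% inhibition at 10 µM.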
T1 sequence (P04035 whole entry): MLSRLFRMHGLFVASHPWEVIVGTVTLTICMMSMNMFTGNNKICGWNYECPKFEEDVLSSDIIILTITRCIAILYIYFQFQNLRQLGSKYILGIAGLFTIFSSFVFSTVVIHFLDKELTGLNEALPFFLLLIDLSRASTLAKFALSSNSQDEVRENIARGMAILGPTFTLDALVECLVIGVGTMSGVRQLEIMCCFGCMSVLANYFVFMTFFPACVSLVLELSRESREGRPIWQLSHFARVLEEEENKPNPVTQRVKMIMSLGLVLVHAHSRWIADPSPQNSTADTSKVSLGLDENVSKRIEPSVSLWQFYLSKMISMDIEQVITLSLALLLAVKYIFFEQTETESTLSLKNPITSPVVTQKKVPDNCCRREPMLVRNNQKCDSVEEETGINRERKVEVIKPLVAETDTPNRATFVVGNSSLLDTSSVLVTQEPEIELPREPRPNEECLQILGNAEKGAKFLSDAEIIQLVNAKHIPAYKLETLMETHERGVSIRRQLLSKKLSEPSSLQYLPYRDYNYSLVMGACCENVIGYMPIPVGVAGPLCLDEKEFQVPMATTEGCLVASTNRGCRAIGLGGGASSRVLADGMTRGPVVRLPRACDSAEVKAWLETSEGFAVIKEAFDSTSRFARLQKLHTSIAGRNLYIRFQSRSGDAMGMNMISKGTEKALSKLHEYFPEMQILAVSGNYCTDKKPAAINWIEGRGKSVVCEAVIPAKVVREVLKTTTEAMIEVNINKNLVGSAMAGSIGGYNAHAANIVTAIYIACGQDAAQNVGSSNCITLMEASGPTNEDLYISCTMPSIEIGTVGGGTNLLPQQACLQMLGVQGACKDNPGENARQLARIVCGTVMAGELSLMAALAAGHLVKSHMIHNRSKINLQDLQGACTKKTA
Details: species or system Escherichia coli.

The target of data set [4] is Sodium-dependent noradrenaline transporter (Homo sapiens, UniProt P23975). Briefly: DRUGMATRIX: Norepinephrine Transporter radioligand binding (ligand: [125I] RTI-55). It is filed as cell membranes, MDCK, Membrane. The note with it: Not Active = under 50% inhibition at 10 µM.
The target of data set [5] is Cytochrome P450 2D6 (Homo sapiens, UniProt P10635). The note with it: bti-tn-5b1-4. Note: in other assays of this panel Not Active means under 50% inhibition at 10 µM.
Data set [6] concerns the target Mitogen-activated protein kinase 14 (Homo sapiens, UniProt Q16539). Details: species or system Escherichia coli.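 Note: inhibition of p38alpha enzyme activity in a biochemical kinase assay, with myelin basic protein serving as substrate; in other assays of this panel Not Active means under 50% inhibition at 10 µM.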
Data set [7] addresses Vasopressin V1a receptor (Homo sapiens, UniProt P37288). The class given is cell membranes, Membrane. The following applies: hek293.

Chain of Platelet-activating factor receptor (P25105 whole entry): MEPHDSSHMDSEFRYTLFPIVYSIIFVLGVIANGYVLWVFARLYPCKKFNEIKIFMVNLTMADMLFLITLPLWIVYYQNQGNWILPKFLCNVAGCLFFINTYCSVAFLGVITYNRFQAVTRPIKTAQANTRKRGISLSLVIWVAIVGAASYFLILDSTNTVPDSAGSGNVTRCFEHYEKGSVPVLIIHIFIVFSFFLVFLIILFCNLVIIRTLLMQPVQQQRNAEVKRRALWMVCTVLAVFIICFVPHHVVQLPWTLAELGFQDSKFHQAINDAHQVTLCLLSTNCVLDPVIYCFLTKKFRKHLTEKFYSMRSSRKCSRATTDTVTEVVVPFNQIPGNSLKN
Chain of Sodium-dependent noradrenaline transporter (P23975 whole entry): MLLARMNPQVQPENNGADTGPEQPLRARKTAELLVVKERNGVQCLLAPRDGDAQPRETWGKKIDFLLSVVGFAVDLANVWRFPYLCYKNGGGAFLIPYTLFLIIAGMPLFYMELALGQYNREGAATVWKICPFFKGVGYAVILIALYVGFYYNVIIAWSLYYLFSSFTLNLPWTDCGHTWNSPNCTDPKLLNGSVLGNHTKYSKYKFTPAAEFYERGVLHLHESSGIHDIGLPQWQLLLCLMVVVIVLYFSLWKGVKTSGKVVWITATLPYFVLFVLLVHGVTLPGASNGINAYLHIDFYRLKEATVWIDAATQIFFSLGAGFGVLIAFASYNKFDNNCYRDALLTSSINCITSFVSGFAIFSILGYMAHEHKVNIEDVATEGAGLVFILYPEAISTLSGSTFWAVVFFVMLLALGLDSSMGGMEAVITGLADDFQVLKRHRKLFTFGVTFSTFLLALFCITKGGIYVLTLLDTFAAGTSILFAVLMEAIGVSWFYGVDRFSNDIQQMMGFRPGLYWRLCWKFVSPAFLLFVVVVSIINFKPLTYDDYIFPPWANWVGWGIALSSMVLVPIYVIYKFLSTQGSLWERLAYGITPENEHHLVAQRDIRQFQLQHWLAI
Chain of Cytochrome P450 2D6 (P10635 whole entry): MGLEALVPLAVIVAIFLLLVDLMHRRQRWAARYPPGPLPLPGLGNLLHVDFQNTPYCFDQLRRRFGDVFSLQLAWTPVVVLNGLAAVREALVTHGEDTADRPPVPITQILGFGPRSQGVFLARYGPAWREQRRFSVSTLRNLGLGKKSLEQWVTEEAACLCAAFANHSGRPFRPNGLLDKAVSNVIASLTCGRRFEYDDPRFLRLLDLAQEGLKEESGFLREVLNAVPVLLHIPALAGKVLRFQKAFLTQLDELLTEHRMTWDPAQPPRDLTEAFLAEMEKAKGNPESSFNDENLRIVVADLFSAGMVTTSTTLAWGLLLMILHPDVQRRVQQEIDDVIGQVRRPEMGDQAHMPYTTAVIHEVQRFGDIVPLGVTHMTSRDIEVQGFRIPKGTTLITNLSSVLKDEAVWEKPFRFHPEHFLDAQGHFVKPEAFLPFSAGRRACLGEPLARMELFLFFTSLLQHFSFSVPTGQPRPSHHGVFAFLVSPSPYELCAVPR
Chain of Mitogen-activated protein kinase 14 (Q16539 whole entry): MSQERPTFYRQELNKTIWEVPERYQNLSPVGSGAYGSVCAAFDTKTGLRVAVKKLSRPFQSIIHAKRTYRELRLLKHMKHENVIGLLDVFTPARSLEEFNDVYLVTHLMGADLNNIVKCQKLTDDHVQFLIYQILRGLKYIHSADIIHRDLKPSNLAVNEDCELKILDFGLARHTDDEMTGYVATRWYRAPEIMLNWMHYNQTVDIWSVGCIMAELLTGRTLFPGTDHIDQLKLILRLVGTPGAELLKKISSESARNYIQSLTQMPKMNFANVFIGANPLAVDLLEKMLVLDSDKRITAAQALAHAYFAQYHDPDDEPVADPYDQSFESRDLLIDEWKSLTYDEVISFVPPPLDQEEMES
Chain of Vasopressin V1a receptor (P37288 whole entry): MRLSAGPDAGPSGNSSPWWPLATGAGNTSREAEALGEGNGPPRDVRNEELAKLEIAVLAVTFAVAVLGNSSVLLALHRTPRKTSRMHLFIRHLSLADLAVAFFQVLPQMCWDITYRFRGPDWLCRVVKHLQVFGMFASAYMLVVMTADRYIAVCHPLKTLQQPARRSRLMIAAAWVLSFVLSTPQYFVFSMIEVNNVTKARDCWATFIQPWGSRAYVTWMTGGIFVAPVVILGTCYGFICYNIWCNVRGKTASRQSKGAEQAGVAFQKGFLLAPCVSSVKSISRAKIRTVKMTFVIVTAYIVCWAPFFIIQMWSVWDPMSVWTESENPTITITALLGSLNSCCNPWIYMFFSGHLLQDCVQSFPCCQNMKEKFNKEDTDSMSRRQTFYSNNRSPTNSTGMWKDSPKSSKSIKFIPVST

On to `CN1C(=O)COc2c(C(=O)NC3CN4CCC3CC4)cc(Cl)cc21` (configuration not stated) [AZASETRON], for which the half-maximal inhibitory concentration (IC50) entry in data set [1], in data set [2], in data set [3], in data set [4] (mdck), in data set [5] and in data set [6] was “Not Active” throughout. Also, in data set [7], the IC50 entry is “Not Active”. In addition, the inhibition constant Ki entry in data set [2] and in data set [5] was “Not Active” each time.

For `C[C@H]1C[C@H]2[C@@H]3CCC4=CC(=O)C=C[C@]4(C)[C@@]3(Cl)[C@@H](O)C[C@]2(C)[C@@]1(O)C(=O)CO` [BECLOMETHASONE], the 50% inhibitory concentration (IC50) entry in data set [1], in data set [2], in data set [3], in data set [4] (mdck), in data set [5] and in data set [6] was “Not Active” in each case. In data set [7], the concentration for half-maximal inhibition (IC50) result is recorded as “Not Active”. Moreover, the inhibitory constant (Ki) entry in data set [2] and in data set [5] was “Not Active” in each case.

Consider `O=C1CC2(CCCC2)CC(=O)N1CCCCN1CCN(c2ncccn2)CC1` [BUSPIRONE], for which the IC50 entry in data set [1], in data set [2], in data set [3], in data set [4] (mdck), in data set [5] and in data set [6] was “Not Active” in each case. Further, in data set [7], the IC50 entry is “Not Active”. In addition, the Ki result in data set [2] and in data set [5] was “Not Active” throughout.

On to `C[C@@]12C(=O)OC(=O)[C@]1(C)[C@H]1CC[C@@H]2O1` [CANTHARIDIN], for which the concentration for half-maximal inhibition (IC50) entry in data set [1], in data set [2], in data set [3], in data set [4] (mdck), in data set [5] and in data set [6] was “Not Active” each time. Also, the IC50 result in data set [7] is “Not Active”. The Ki result in data set [2] and in data set [5] was “Not Active” each time.

On to `C[N+](C)(C)CCO.[Cl-]` [CHOLINE CHLORIDE], for which the IC50 result in data set [1], in data set [2], in data set [3], in data set [4] (mdck), in data set [5] and in data set [6] was “Not Active” each time. In addition, the IC50 entry in data set [7] is given as “Not Active”. Moreover, the Ki result in data set [2] and in data set [5] was “Not Active” in each case.

Regarding `C/C=C/C[C@@H](C)[C@@H](O)[C@H]1C(=O)N[C@@H](CC)C(=O)N(C)CC(=O)N(C)[C@@H](CC(C)C)C(=O)N[C@@H](C(C)C)C(=O)N(C)[C@@H](CC(C)C)C(=O)N[C@@H](C)C(=O)N[C@H](C)C(=O)N(C)[C@@H](CC(C)C)C(=O)N(C)[C@@H](CC(C)C)C(=O)N(C)[C@@H](C(C)C)C(=O)N1C` [CYCLOSPORINE], the concentration for half-maximal inhibition (IC50) result in data set [1], in data set [2], in data set [3], in data set [4] (mdck), in data set [6] and in data set [7] was “Not Active” in each case. Further, the Ki entry in data set [2] is listed as “Not Active”.

For the compound `CC(=O)Nc1c(I)c(NC(C)=O)c(I)c(C(=O)O)c1I` [DIATRIZOIC ACID], the IC50 result in data set [1], in data set [2], in data set [3], in data set [4] (mdck), in data set [5] and in data set [6] was “Not Active” each time. Also, the IC50 result in data set [7] is “Not Active”. For the same compound, the inhibition constant Ki result in data set [2] and in data set [5] was “Not Active” throughout.

As for `C[C@]12CC[C@@H]3c4ccc(O)cc4CC[C@H]3[C@@H]1CC[C@@H]2O` [ESTRADIOL], the IC50 entry in data set [1], in data set [2], in data set [3], in data set [4] (mdck), in data set [5] and in data set [6] was “Not Active” each time. In data set [7], the IC50 entry is “Not Active”. Besides, the inhibition constant Ki result in data set [2] and in data set [5] was “Not Active” in each case.

Consider `CC1(C)O[C@@H]2C[C@H]3[C@@H]4C[C@H](F)C5=CC(=O)C=C[C@]5(C)[C@@]4(F)[C@@H](O)C[C@]3(C)[C@]2(C(=O)CO)O1` [FLUOCINOLONE ACETONIDE], for which the IC50 entry in data set [1], in data set [2], in data set [3], in data set [4] (mdck), in data set [5] and in data set [6] was “Not Active” in each case. Further, in data set [7], the half-maximal inhibitory concentration (IC50) result is given as “Not Active”. Also, the Ki result in data set [2] and in data set [5] was “Not Active” in each case.

For the compound `Cc1ccc(S(=O)(=O)NC(=O)NN2CC3CCCC3C2)cc1` (configuration not stated) [GLICLAZIDE], the half-inhibitory concentration (IC50) entry in data set [1], in data set [2], in data set [3], in data set [4] (mdck), in data set [5] and in data set [6] was “Not Active” in each case. Also, the 50% inhibitory concentration (IC50) result in data set [7] is “Not Active”. Also, the Ki entry in data set [2] and in data set [5] was “Not Active” in each case.

As to `COc1ccc2c(c1)c(CC(=O)O)c(C)n2C(=O)c1ccc(Cl)cc1` [INDOMETHACIN], the IC50 result in data set [1], in data set [2], in data set [3], in data set [4] (mdck), in data set [5] and in data set [6] was “Not Active” throughout. Moreover, the 50% inhibitory concentration (IC50) entry in data set [7] was “Not Active”. In addition, the inhibition constant Ki result in data set [2] and in data set [5] was “Not Active” throughout.

For `C#C[C@]1(O)CC[C@H]2[C@@H]3CCc4cc(OC)ccc4[C@H]3CC[C@@]21C` [MESTRANOL], the 50% inhibitory concentration (IC50) result in data set [1] is “Not Active”; in data set [2], “Not Active”; in data set [3], “Not Active”; in data set [4] (read-out: IC50), 1.38 µM; in data set [5], “Not Active”; in data set [6], “Not Active”. The 50% inhibitory concentration (IC50) entry in data set [7] is on record as “Not Active”. Also, the inhibition constant Ki entry in data set [2] was “Not Active”; in data set [4] (read-out: Ki) it was 1.37 µM; in data set [5], “Not Active”.

In the case of `Cc1ncc([N+](=O)[O-])n1CCO` [METRONIDAZOLE], the IC50 result in data set [1], in data set [2], in data set [3], in data set [4] (mdck), in data set [5] and in data set [6] was “Not Active” each time. The IC50 entry in data set [7] is given as “Not Active”. Moreover, the inhibitory constant (Ki) entry in data set [2] and in data set [5] was “Not Active” each time.

Regarding `CC(C)(C(=O)c1cccnc1)c1cccnc1` [METYRAPONE], the IC50 entry in data set [1], in data set [2], in data set [3], in data set [4] (mdck), in data set [5] and in data set [6] was “Not Active” each time. Moreover, the half-maximal inhibitory concentration (IC50) entry in data set [7] is “Not Active”. Also, the Ki result in data set [2] and in data set [5] was “Not Active” throughout.

With `COc1ccc2cc([C@H](C)C(=O)O)ccc2c1` [NAPROXEN], the IC50 result in data set [1], in data set [2], in data set [3], in data set [4] (mdck), in data set [6] and in data set [7] was “Not Active” throughout. For the same compound, the Ki result in data set [2] was “Not Active”.

As for `COC(=O)C1=C(C)NC(C)=C(C(=O)OCC(C)C)C1c1ccccc1[N+](=O)[O-]` (configuration not stated) [NISOLDIPINE], the IC50 entry in data set [1], in data set [2], in data set [3], in data set [4] (mdck), in data set [6] and in data set [7] was “Not Active” throughout. The Ki entry in data set [2] was “Not Active”.

In the case of `O=C(C1CCCCC1)N1CC(=O)N2CCc3ccccc3C2C1` (configuration not stated) [PRAZIQUANTEL], the concentration for half-maximal inhibition (IC50) entry in data set [1], in data set [2], in data set [3], in data set [4] (mdck), in data set [5] and in data set [6] was “Not Active” each time. Also, the 50% inhibitory concentration (IC50) result in data set [7] is listed as “Not Active”. Besides, the inhibitory constant (Ki) result in data set [2] and in data set [5] was “Not Active” in each case.

Regarding `CCN(CC)CCOC(=O)c1ccc(N)cc1` [PROCAINE], the IC50 result in data set [1], in data set [2], in data set [3], in data set [4] (mdck), in data set [5] and in data set [6] was “Not Active” in each case. In addition, in data set [7], the IC50 entry was “Not Active”. Also, the Ki entry in data set [2] and in data set [5] was “Not Active” throughout.

For orientation: IC50 means the concentration at which inhibition is half-maximal. The Ki is a dissociation constant, usually derived from enzyme kinetics or from competition with a known ligand.
